Experimental findings from patent US7928238B2, “1,2,3,4-tetrahydro-quinoline derivatives as CETP inhibitors” (Janssen Pharmaceutica NV, priority 2006, dated 2011) are described below.

The target in the experiment is T1, CETP (Homo sapiens, UniProt P11597).
T1 construct: from tissue; host or cells: human plasma from normal volunteers
T1 sequence (P11597 18-493): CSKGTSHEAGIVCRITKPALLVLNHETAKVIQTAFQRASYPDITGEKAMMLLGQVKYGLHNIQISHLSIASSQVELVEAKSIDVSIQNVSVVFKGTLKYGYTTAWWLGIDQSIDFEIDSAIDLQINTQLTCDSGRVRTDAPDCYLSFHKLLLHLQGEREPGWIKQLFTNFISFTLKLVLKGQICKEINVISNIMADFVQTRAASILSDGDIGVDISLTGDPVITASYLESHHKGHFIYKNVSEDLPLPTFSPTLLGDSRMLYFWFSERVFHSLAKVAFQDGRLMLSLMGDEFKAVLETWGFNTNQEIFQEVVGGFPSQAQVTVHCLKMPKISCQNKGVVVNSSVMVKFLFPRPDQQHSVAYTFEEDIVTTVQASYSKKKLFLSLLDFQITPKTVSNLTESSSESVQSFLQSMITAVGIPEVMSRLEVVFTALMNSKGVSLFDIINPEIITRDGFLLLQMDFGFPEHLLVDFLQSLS
Description: CETP in vitro assay (Amersham kit TRKQ7005; modified protocol in human plasma, [3H]CE-HDL transfer). Format: biochemical. As to conditions: for % Inhibition @ 1 μM / inhibition at 1 µM: 1 μM compound; for inhibition at 1 µM: read-out: % Inhibition @ 1 μM; for IC50: from plots of % control versus compound concentration. The method, then: The CETP inhibitory activity of the compounds was determined using a commercially available kit from Amersham Biosciences (Catalog #TRKQ7005).
Briefly, 80 μl of human plasma (obtained from normal volunteers), approximately 25 μg/ml (20 μl) of [^3H]CE-HDL (Amersham Biosciences from kit TRKQ7005) and 1 μl of compound dissolved in DMSO was incubated for at least 4 hrs at 37° C. and non-specific transfer was determined by incubating a corresponding plate at 4° C. (blank). After the incubation period, 10 μl of a solution of 1% Dextralip 50/0.5M MgCl2, pH 7.4 was added, vortexed and incubated at room temperature for 10 min. The plate was then centrifuged for 30 min at 10° C. at 300 rpm in a Sorvall RT6000B centrifuge. Fifty microliters of the supernatant was transferred to a Picoplate (Packard) containing 100 μl of Microscint 40 (Perkin Elmer) and mixed for 30 min using a plate mixer. The radioactivity was counted using a TopCount (Perkin Elmer) and the % control was determined in the samples using the following formula: % transfer relative to vehicle controls (% control)=[cpm blank−cpm test]/cpm blank/cpm control]×100. IC50s were calculated from plots of the % control versus compound concentration.

Molecules are shown by their SMILES. Where “and” joins values, the source holds several entries; their conditions need not be identical. Identical values can stand only once.

Regarding `O[C@H](CN1c2cccc(-c3cccc(OC(F)(F)F)c3)c2CC[C@H]1c1cccc(OC(F)(F)C(F)F)c1)C(F)(F)F` [Compound 81, (2S, αR)-3,4-Dihydro-2-[3-(1,1,2,2-tetrafluoroethoxy)phenyl]-5-[3-(trifluoromethoxy)phenyl]-α-(trifluoromethyl)-1(2H)-quinolineethanol], the “% Inhibition @ 1 μM” value is 36%, the inhibition at 1 µM came to 46% and it took 30 nM to reach half-maximal inhibition (IC50).
With `C[C@@H](O)CN1c2cccc(-c3cccc(Cl)c3)c2CC[C@@H]1c1cccc(OC(F)(F)F)c1` [Compound 40], the “% Inhibition @ 1 μM” value is 32%, the inhibition at 1 µM was 37% and the half-maximal inhibitory concentration (IC50) was 150 nM.
In the case of `COc1cccc(-c2cccc3c2CCC(c2cccc(OC(F)(F)C(F)F)c2)N3CC(O)C(F)(F)F)c1` (centres unmarked) [Compound 72, 1,1,1-Trifluoro-3-{5-(3-methoxy-phenyl)-2-[3-(1,1,2,2-tetrafluoro-ethoxy)-phenyl]-3,4-dihydro-2H-quinolin-1-yl}-propan-2-ol], the “% Inhibition @ 1 μM” value was 75% and 62%; the IC50 was 160 nM and 93 nM.
Turning to `COc1cccc(-c2cccc3c2CC[C@H](c2cccc(OC(F)(F)C(F)F)c2)N3C[C@H](O)C(F)(F)F)c1` [Compound 83], the “% Inhibition @ 1 μM” value amounted to 98%; the inhibition at 1 µM came out at 100%; the IC50 is 140 nM and 160 nM.
For `OC(CN1c2cccc(-c3ccsc3)c2CCC1c1cccc(OC(F)(F)C(F)F)c1)C(F)(F)F` (centres unmarked) [Compound 64, 1,1,1-Trifluoro-3-{2-[3-(1,1,2,2-tetrafluoro-ethoxy)-phenyl]-5-thiophen-3-yl-3,4-dihydro-2H-quinolin-1-yl}-propan-2-ol], the “% Inhibition @ 1 μM” value is 61% and 70% and 78%; half-maximal inhibition (IC50) required 300 nM.
For the molecule `N#Cc1cccc(C2CCc3c(-c4cccc(OC(F)(F)F)c4)cccc3N2CC(O)C(F)(F)F)c1` (centres unmarked) [Compound 28, 3-[1-(3,3,3-Trifluoro-2-hydroxy-propyl)-5-(3-trifluoromethoxy-phenyl)-1,2,3,4-tetrahydro-quinolin-2-yl]-benzonitrile], the “% Inhibition @ 1 μM” value was 25%.
As to `C[C@@H](O)CN1c2cccc(-c3cccc(OC(F)(F)F)c3)c2CC[C@H]1c1cccc(OC(F)(F)F)c1` [Compound 54], the inhibition at 1 µM stood at 13%.
Regarding `O[C@@H](CN1c2cccc(-c3cccc(F)c3)c2CC[C@@H]1c1cccc(OC(F)(F)C(F)F)c1)C(F)(F)F` [Compound 82, (2R, αS)-3,4-Dihydro-2-[3-(1,1,2,2-tetrafluoroethoxy)phenyl]-5-[3-(fluoro)phenyl]-α-(trifluoromethyl)-1(2H)-quinolineethanol], the “% Inhibition @ 1 μM” value was determined as 76%; the inhibition at 1 µM was found to be 84%; the IC50 is 122 nM and 93 nM.
For `OC(CN1c2cccc(-c3ccsc3)c2CCC1c1cccc(OC(F)(F)C(F)F)c1)C(F)(F)F` (centres unmarked) [Compound 65, 1,1,1-Trifluoro-3-{2-[3-(1,1,2,2-tetrafluoro-ethoxy)-phenyl]-5-thiophen-3-yl-3,4-dihydro-2H-quinolin-1-yl}-propan-2-ol], the “% Inhibition @ 1 μM” value amounted to 16%.
As for `OC(CN1c2cccc(-c3cccc(OC(F)(F)F)c3)c2CCC1c1cccc(C(F)(F)F)c1)C(F)(F)F` (centres unmarked) [Compound 18, 1,1,1-Trifluoro-3-[5-(3-trifluoromethoxy-phenyl)-2-(3-trifluoromethyl-phenyl)-3,4-dihydro-2H-quinolin-1-yl]-propan-2-ol], the “% Inhibition @ 1 μM” value was 40% and 35%; the IC50 was 2900 nM.
Consider `Cc1cc(-c2cccc3c2CCC(c2cccc(OC(F)(F)C(F)F)c2)N3CC(O)C(F)(F)F)ccc1Cl` (centres unmarked) [Compound 5, 3-{5-(4-Chloro-3-methyl-phenyl)-2-[3-(1,1,2,2-tetrafluoro-ethoxy)-phenyl]-3,4-dihydro-2H-quinolin-1-yl}-1,1,1-trifluoro-propan-2-ol], for which the “% Inhibition @ 1 μM” value is on record as 96%; the IC50 is 260 nM and 381 nM.
Take `OC(CN1c2cccc(-c3cccs3)c2CCC1c1cccc(OC(F)(F)C(F)F)c1)C(F)(F)F` (centres unmarked) [Compound 74, 1,1,1-Trifluoro-3-{2-[3-(1,1,2,2-tetrafluoro-ethoxy)-phenyl]-5-thiophen-2-yl-3,4-dihydro-2H-quinolin-1-yl}-propan-2-ol]: the “% Inhibition @ 1 μM” value is 60% and 66%; the IC50 is 380 nM and 255 nM.
As for `C[C@@H](O)CN1c2cccc(-c3cccc(Cl)c3)c2CC[C@H]1c1cccc(OC(F)(F)F)c1` [Compound 41], the inhibition at 1 µM was 3%.
Consider `OC(CF)CN1c2cccc(-c3cccc(OC(F)(F)F)c3)c2CCC1c1cccc(OC(F)(F)F)c1` (centres unmarked) [Compound 50, 1-[2,5-Bis-(3-trifluoromethoxy-phenyl)-3,4-dihydro-2H-quinolin-1-yl]-3-fluoro-propan-2-ol], for which the “% Inhibition @ 1 μM” value is 13%.
For the molecule `COc1cccc(C2CCc3c(-c4cccc(OC(F)(F)F)c4)cccc3N2CC(O)C(F)(F)F)c1` (centres unmarked) [Compound 25, 1,1,1-Trifluoro-3-[2-(3-methoxy-phenyl)-5-(3-trifluoromethoxy-phenyl)-3,4-dihydro-2H-quinolin-1-yl]-propan-2-ol], the “% Inhibition @ 1 μM” value is 59% and 74%; 582 nM corresponded to half-maximal inhibition (IC50).
As for `OC(CN1c2cccc(-c3ccc(OC(F)(F)F)cc3)c2CCC1c1cccc(OC(F)(F)C(F)F)c1)C(F)(F)F` (centres unmarked) [Compound 7, 1,1,1-Trifluoro-3-[2-[3-(1,1,2,2-tetrafluoro-ethoxy)-phenyl]-5-(4-trifluoromethoxy-phenyl)-3,4-dihydro-2H-quinolin-1-yl]-propan-2-ol], the “% Inhibition @ 1 μM” value is recorded as 61, 61%.
Regarding `CC(C)Oc1cccc(-c2cccc3c2CCC(c2cccc(OC(F)(F)C(F)F)c2)N3CC(O)C(F)(F)F)c1` (centres unmarked) [Compound 68, 1,1,1-Trifluoro-3-{5-(3-isopropoxy-phenyl)-2-[3-(1,1,2,2-tetrafluoro-ethoxy)-phenyl]-3,4-dihydro-2H-quinolin-1-yl}-propan-2-ol], the “% Inhibition @ 1 μM” value was 49% and 61%; the IC50 is 345 nM.
As for `COc1cccc(-c2cccc3c2CC[C@@H](c2cccc(OC(F)(F)F)c2)N3C[C@@H](C)O)c1` [Compound 60], the inhibition at 1 µM was determined as 5%.
Regarding `OC(CN1c2cccc(-c3cccc(OC(F)(F)F)c3)c2CCC1c1cccc(F)c1)C(F)(F)F` (centres unmarked) [Compound 23, 1,1,1-Trifluoro-3-[2-(3-fluoro-phenyl)-5-(3-trifluoromethoxy-phenyl)-3,4-dihydro-2H-quinolin-1-yl]-propan-2-ol], the “% Inhibition @ 1 μM” value stood at 33%.
For the molecule `OC(CN1c2cccc(-c3cccc(F)c3)c2CCC1c1cccc(OC(F)(F)F)c1)C(F)(F)F` (centres unmarked) [Compound 57, 1,1,1-Trifluoro-3-[5-(3-fluoro-phenyl)-2-(3-trifluoromethoxy-phenyl)-3,4-dihydro-2H-quinolin-1-yl]-propan-2-ol], the “% Inhibition @ 1 μM” value was 92% and 97% and 91%; the IC50 was 59 nM and 253 nM.
Regarding `OC(CN1c2cccc(-c3cccc(OC(F)(F)F)c3)c2CCC1c1ccccc1OC(F)(F)C(F)F)C(F)(F)F` (centres unmarked) [Compound 89, 1,1,1-Trifluoro-3-[2-[2-(1,1,2,2-tetrafluoro-ethoxy)-phenyl]-5-(3-trifluoromethoxy-phenyl)-3,4-dihydro-2H-quinolin-1-yl]-propan-2-ol], the “% Inhibition @ 1 μM” value is reported as 9%.
On to `OC(CN1c2cccc(-c3cccc(OC(F)(F)F)c3)c2CCC1c1cccs1)C(F)(F)F` (centres unmarked) [Compound 33, 1,1,1-Trifluoro-3-[2-thiophen-2-yl-5-(3-trifluoromethoxy-phenyl)-3,4-dihydro-2H-quinolin-1-yl]-propan-2-ol], for which the “% Inhibition @ 1 μM” value was 28%.
